Reference: patent publication US20040127501A1, “Therapeutic agents useful for treating pain” (priority 2002, published 2004)

Biological target: T1, mGluR5 (Rattus norvegicus, UniProt P31424)
T1 construct: The procedure allows the expression of the mGluR5 receptor by astrocytes; endogenous in cells; host or cells: secondary astrocyte cultures from embryonic (E18) Sprague-Dawley cortex, EGF-treated
Experiment: mGluR5 calcium mobilization flux assay in primary astrocytes (Fluo-4, Fluorometric Imaging Plate reader)
Type: cell-based, rat (Sprague-Dawley)
Conditions: astrocytes expressing mGluR5; calcium mobilization flux with glutamate (final 10 mM); mean of 5 experiments
Description: Cell cultures: Primary glial cultures were prepared from cortices of Sprague-Dawley 18 days old embryos. The cortices were dissected and then dissociated by trituration. The resulting cell homogenate was plated onto poly-D-lysine precoated T175 flasks (BIOCOAT, commercially available from Becton Dickinson and Company Inc. of Franklin Lakes, N.J.) in Dulbecco's Modified Eagle's Medium (“DMEM,” pH 7.4), buffered with 25 mM HEPES, and supplemented with 15% fetal calf serum (“FCS,” commercially available from Hyclone Laboratories Inc. of Omaha, Nebr.), and incubated at 37° C. and 5% CO2. After 24 hours, FCS supplementation was reduced to 10%. […]
Assay Protocol: After 3-5 days incubation with EGF, the astrocytes were washed with 127 mM NaCl, 5 mM KCl, 2 mM MgCl2, […] NaH2PO4, 2 mM CaCl2, 5 mM NaHCO3, 8 mM HEPES, 10 mM Glucose at pH 7.4 (“Assay Buffer”) and loaded with the dye Fluo-4 (commercially available from Molecular Probes Inc. of Eugene, Oreg.) using 0.1 mL of Assay Buffer containing Fluo-4 ([…]). […] The plates containing the astrocytes were then transferred to a Fluorometric Imaging Plate reader (commercially available from Molecular Devices Corporation of Sunnyvale, Calif.) for the assessment of calcium mobilization flux in the presence of glutamate and in the presence or absence of antagonist. […] In each experiment each data point was determined two times.

T1 sequence (P31424 21-1203): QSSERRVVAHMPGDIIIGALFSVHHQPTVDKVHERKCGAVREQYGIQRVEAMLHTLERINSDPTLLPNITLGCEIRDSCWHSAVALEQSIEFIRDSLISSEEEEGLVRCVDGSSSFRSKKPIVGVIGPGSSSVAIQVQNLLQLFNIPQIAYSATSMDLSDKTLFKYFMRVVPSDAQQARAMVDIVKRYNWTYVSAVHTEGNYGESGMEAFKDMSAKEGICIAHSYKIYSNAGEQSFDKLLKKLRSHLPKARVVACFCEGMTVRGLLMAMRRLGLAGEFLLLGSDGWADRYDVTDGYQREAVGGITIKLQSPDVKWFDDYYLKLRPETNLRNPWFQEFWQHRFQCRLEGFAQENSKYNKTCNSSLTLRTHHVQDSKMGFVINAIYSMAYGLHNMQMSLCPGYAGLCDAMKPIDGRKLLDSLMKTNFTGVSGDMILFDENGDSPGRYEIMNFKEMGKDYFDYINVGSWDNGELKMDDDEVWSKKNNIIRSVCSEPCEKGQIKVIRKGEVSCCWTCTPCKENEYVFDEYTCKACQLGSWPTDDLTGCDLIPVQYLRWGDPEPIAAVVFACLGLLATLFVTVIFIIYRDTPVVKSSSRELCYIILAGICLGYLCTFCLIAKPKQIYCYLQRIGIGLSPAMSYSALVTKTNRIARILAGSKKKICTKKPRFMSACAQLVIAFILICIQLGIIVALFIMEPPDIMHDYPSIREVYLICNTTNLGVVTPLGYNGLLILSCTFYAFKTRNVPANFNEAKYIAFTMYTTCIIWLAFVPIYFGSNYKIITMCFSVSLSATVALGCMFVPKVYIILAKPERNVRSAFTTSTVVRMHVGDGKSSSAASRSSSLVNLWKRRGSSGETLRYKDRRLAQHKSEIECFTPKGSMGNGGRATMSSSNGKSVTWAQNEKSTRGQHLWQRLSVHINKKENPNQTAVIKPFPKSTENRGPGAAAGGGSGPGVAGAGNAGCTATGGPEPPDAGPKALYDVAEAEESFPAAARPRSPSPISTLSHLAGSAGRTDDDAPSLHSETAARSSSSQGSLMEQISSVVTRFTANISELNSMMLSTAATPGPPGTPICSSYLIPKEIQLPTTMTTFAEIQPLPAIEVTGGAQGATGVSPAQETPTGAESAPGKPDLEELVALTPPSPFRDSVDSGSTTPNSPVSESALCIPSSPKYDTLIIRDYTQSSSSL

IC50: 555 ± 137 nM
Compound: O=C(C#Cc1ccccc1)N1CCN(c2ncccn2)CC1 [Compound AAA(IIa)]
